From ChEMBL document CHEMBL1201862, “PubChem BioAssay data set” (2004)
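96-well plates; 48 h exposure; 5 concentrations. Endpoints by linear interpolation between flanking doses. Not reached: highest tested concentration assigned. GI50 = concentration required for 50% inhibition of growth.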 Calls of active or inactive are those of the source. No stated cut-off is given here; in the data, active = GI50 up to about 1.1 µM and inactive = higher.

Tests used:
Test in all cases: NCI tumour cell line growth inhibition, 48 h
U-251 = system: U-251
SK-MEL-28 = system: SK-MEL-28
MCF7 = system: MCF7
TK-10 = system: TK-10
OVCAR-3 = system: OVCAR-3
RPMI-8226 = system: RPMI-8226
CAKI-1 = system: CAKI-1
MDA-MB-435 = system: MDA-MB-435
SR = system: SR
SF-539 = system: SF-539
OVCAR-5 = system: OVCAR-5
LOX IMVI = system: LOX IMVI
COLO 205 = system: COLO 205
HCT-116 = system: HCT-116
KM12 = system: KM12
M14 = system: M14
T47D = system: T47D
HCC 2998 = system: HCC 2998
Malme-3M = system: Malme-3M
OVCAR-4 = system: OVCAR-4

Row | SMILES | GI50 (U-251) | GI50 (SK-MEL-28) | GI50 (MCF7) | GI50 (TK-10) | GI50 (OVCAR-3) | GI50 (RPMI-8226) | GI50 (CAKI-1) | GI50 (MDA-MB-435) | GI50 (SR) | GI50 (SF-539) | GI50 (OVCAR-5) | GI50 (LOX IMVI) | GI50 (COLO 205) | GI50 (HCT-116) | GI50 (KM12) | GI50 (M14) | GI50 (T47D) | GI50 (HCC 2998) | GI50 (Malme-3M) | GI50 (OVCAR-4)
1 | O=C(O)C12C3CCC(CC3)C1(C(=O)O)C1CCC2C1 (stereo unspecified) | > 100 µM (inactive) | > 100 µM (inactive) | > 100 µM (inactive) | > 100 µM (inactive) | > 100 µM (inactive) | > 100 µM (inactive) | > 100 µM (inactive) | > 100 µM (inactive) | < 0.01 µM (active) | > 100 µM (inactive) | > 100 µM (inactive) | > 100 µM (inactive) | > 100 µM (inactive) | > 100 µM (inactive) | > 100 µM (inactive) | > 100 µM (inactive) | > 100 µM (inactive) | > 100 µM (inactive) | > 100 µM (inactive) | 
2 | CN1C(c2ccccc2)CC(=NOCc2ccccc2)CC1c1ccccc1 (stereo unspecified) | 34.1 µM (inactive) | 40.8 µM (inactive) | 18.6 µM (inactive) | 46.9 µM (inactive) | 29 µM (inactive) | 37.2 µM (inactive) | 55 µM (inactive) | 16.9 µM (inactive) | 13.6 µM (inactive) | 36.9 µM (inactive) | 70.8 µM (inactive) | 14.8 µM (inactive) | 50.6 µM (inactive) | 18.5 µM (inactive) | 21.9 µM (inactive) | 42.5 µM (inactive) | 17.7 µM (inactive) | > 71.9 µM (inactive) | 50.9 µM (inactive) | 22.5 µM (inactive)
3 | C=CC(C)CCC(C/C=C(\C)CCC=C(C)C)C(=C)CCCC(C)C (stereo unspecified) | > 100 µM (inactive) | > 100 µM (inactive) | > 100 µM (inactive) | > 100 µM (inactive) | > 100 µM (inactive) | > 100 µM (inactive) | > 100 µM (inactive) | > 100 µM (inactive) | > 100 µM (inactive) | > 100 µM (inactive) | > 100 µM (inactive) | > 100 µM (inactive) | > 100 µM (inactive) | > 100 µM (inactive) | > 100 µM (inactive) | > 100 µM (inactive) | > 100 µM (inactive) | > 100 µM (inactive) | > 100 µM (inactive) | > 100 µM (inactive)
4 | COc1cc(Br)cc2cc(-c3cn4ccsc4n3)c(=O)oc12 | 30 µM (inactive) | 46.2 µM (inactive) | 7.19 µM (inactive) | 64.7 µM (inactive) | 35 µM (inactive) | 33.2 µM (inactive) | 35 µM (inactive) | 21.6 µM (inactive) | 25.9 µM (inactive) | 36.2 µM (inactive) | 68.1 µM (inactive) | 49.4 µM (inactive) | 57.3 µM (inactive) | 25.6 µM (inactive) | 18.9 µM (inactive) | 27.9 µM (inactive) | 19.6 µM (inactive) | 7.24 µM (inactive) | 91.2 µM (inactive) | 51.2 µM (inactive)
5 | CN(Cc1cc(Br)cc(Br)c1O)Cc1c(O)ccc2ccccc12 | 19.3 µM (inactive) | 20 µM (inactive) | 26.4 µM (inactive) | 17.4 µM (inactive) | 15.2 µM (inactive) | 22.6 µM (inactive) | 16.1 µM (inactive) | 18 µM (inactive) | 20.6 µM (inactive) | 16.1 µM (inactive) | 17.6 µM (inactive) | 19.8 µM (inactive) | 19.1 µM (inactive) | 16.7 µM (inactive) | 17.2 µM (inactive) | 17.2 µM (inactive) | 21.9 µM (inactive) | 17.1 µM (inactive) | 21.7 µM (inactive) | 16.5 µM (inactive)
6 | Cc1noc(C)c1-n1nc2ccc3nonc3c2n1 | 30.1 µM (inactive) | > 100 µM (inactive) | > 67.8 µM (inactive) | 24.8 µM (inactive) | > 100 µM (inactive) | > 100 µM (inactive) | > 83.8 µM (inactive) | > 100 µM (inactive) | > 100 µM (inactive) | 41.5 µM (inactive) | > 100 µM (inactive) | > 100 µM (inactive) | > 100 µM (inactive) | 56.6 µM (inactive) | > 100 µM (inactive) | > 100 µM (inactive) | > 67.3 µM (inactive) | > 100 µM (inactive) | > 100 µM (inactive) | > 100 µM (inactive)
7 | C=C1C[C@@H](O)[C@@H](Br)C(C)(C)[C@]12CCC(C)(Cl)C(Br)C2 (stereo partly specified) | 24.4 µM (inactive) | 55.7 µM (inactive) | 25.1 µM (inactive) | 1.58 µM (inactive) | 15.7 µM (inactive) | 34 µM (inactive) | 34.8 µM (inactive) | 23.9 µM (inactive) | 40.8 µM (inactive) | 16.8 µM (inactive) | 0.736 µM (active) | 21.3 µM (inactive) | 4.86 µM (inactive) | 32.3 µM (inactive) | 0.929 µM (active) | 34 µM (inactive) | 19.5 µM (inactive) | 13.2 µM (inactive) | 22 µM (inactive) | 21.9 µM (inactive)
8 | COC1(OC)N=C(N)C2(C#N)/C(=N/N(C)C)CC(C)C12C#N (stereo unspecified) | > 100 µM (inactive) | > 100 µM (inactive) | > 100 µM (inactive) | > 100 µM (inactive) |  | > 10 µM (inactive) | > 100 µM (inactive) | > 100 µM (inactive) | > 100 µM (inactive) | > 100 µM (inactive) | > 100 µM (inactive) | > 100 µM (inactive) | > 100 µM (inactive) | > 100 µM (inactive) | > 100 µM (inactive) | > 100 µM (inactive) | > 100 µM (inactive) | > 100 µM (inactive) | > 100 µM (inactive) | 
9 | CN1C(=O)C(CC(=O)O)NC1=S (stereo unspecified) | > 100 µM (inactive) | > 100 µM (inactive) | 54 µM (inactive) | > 100 µM (inactive) | > 100 µM (inactive) | > 100 µM (inactive) | > 100 µM (inactive) | > 100 µM (inactive) | > 100 µM (inactive) | > 100 µM (inactive) | > 100 µM (inactive) | > 100 µM (inactive) | > 100 µM (inactive) | 95.5 µM (inactive) | > 100 µM (inactive) | > 100 µM (inactive) | 51.4 µM (inactive) | > 100 µM (inactive) | > 100 µM (inactive) | 
10 | Nc1ccc(OCCCc2c(-c3ccccc3)[nH]c(N)nc2=O)cc1 | 69.5 µM (inactive) | 27.5 µM (inactive) | 40.3 µM (inactive) |  | 25.2 µM (inactive) | 84.9 µM (inactive) | 91.6 µM (inactive) | 49.7 µM (inactive) | > 100 µM (inactive) | 28.1 µM (inactive) | > 100 µM (inactive) | 31 µM (inactive) | 26 µM (inactive) | 29 µM (inactive) | 67.8 µM (inactive) | 32.5 µM (inactive) | 12.2 µM (inactive) | 22.8 µM (inactive) | 26.8 µM (inactive) | 31.6 µM (inactive)
11 | CCOC(=O)c1[nH]c2cccc3c2c1CC(Br)C3=O (stereo unspecified) | 14.9 µM (inactive) | 20 µM (inactive) | 22.5 µM (inactive) | 14.6 µM (inactive) | 13.2 µM (inactive) | 5.02 µM (inactive) | 11.2 µM (inactive) | 11.7 µM (inactive) | 2.14 µM (inactive) | 16.4 µM (inactive) | 19 µM (inactive) | 15.7 µM (inactive) | 14 µM (inactive) | 2.48 µM (inactive) | 15.8 µM (inactive) | 13.4 µM (inactive) | 15.9 µM (inactive) | 14.7 µM (inactive) | 14.5 µM (inactive) | 
12 | Cc1csc2nc3[nH]ncc3c(=O)n12 | > 100 µM (inactive) | > 100 µM (inactive) | > 100 µM (inactive) |  | > 100 µM (inactive) | > 100 µM (inactive) | > 100 µM (inactive) | > 100 µM (inactive) | > 100 µM (inactive) | > 100 µM (inactive) | > 100 µM (inactive) | > 100 µM (inactive) | > 100 µM (inactive) | > 100 µM (inactive) | > 100 µM (inactive) | > 100 µM (inactive) | > 100 µM (inactive) | > 100 µM (inactive) | > 100 µM (inactive) | > 100 µM (inactive)
13 | CC(C)(C)OC(=O)N1CC(COS(C)(=O)=O)c2ccc(O)cc21 (stereo unspecified) | 2.51 µM (inactive) | 2.14 µM (inactive) | 1.13 µM (inactive) | 3.37 µM (inactive) | 2.05 µM (inactive) | 0.615 µM (active) | 2.42 µM (inactive) | 1.8 µM (inactive) | 0.703 µM (active) | 2.06 µM (inactive) | 2.12 µM (inactive) |  | 1.58 µM (inactive) | 1.95 µM (inactive) | 2.46 µM (inactive) | 1.72 µM (inactive) | 3.05 µM (inactive) | 0.133 µM (active) | 1.52 µM (inactive) | 1.18 µM (inactive)
14 | Cn1c(=O)oc2cc(C(=O)CSC(=S)N3CCCCCC3)ccc21 | 72.8 µM (inactive) | > 100 µM (inactive) | > 100 µM (inactive) | > 100 µM (inactive) | > 100 µM (inactive) | > 100 µM (inactive) | > 100 µM (inactive) | > 100 µM (inactive) | 56.2 µM (inactive) | > 100 µM (inactive) | > 100 µM (inactive) |  | > 100 µM (inactive) | 73.6 µM (inactive) | 49.8 µM (inactive) | > 100 µM (inactive) | 86.7 µM (inactive) | 78.7 µM (inactive) | > 100 µM (inactive) | > 100 µM (inactive)
